Source: PubChem BioAssay (NCI)
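Test compounds were applied to cells in 96-well plates for 48 hours at 5 doses. At the TGI there is no net growth.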

Experiments:
Assay in all cases: growth of human tumour cells (NCI), 48 h
MDA-MB-435 = tested on: MDA-MB-435
TK-10 renal = tested on: TK-10 renal
K-562 leukemia = tested on: K-562 leukemia
SR leukemia = tested on: SR leukemia
HT29 colon = tested on: HT29 colon
IGROV1 ovarian = tested on: IGROV1 ovarian
A498 renal = tested on: A498 renal
MDA-MB-231 breast = tested on: MDA-MB-231 breast
NCI/ADR-RES ovarian = tested on: NCI/ADR-RES ovarian
LOX IMVI melanoma = tested on: LOX IMVI melanoma
UACC-62 melanoma = tested on: UACC-62 melanoma
BT-549 breast = tested on: BT-549 breast

SMILES	TGI (MDA-MB-435)	TGI (TK-10 renal)	TGI (K-562 leukemia)	TGI (SR leukemia)	TGI (HT29 colon)	TGI (IGROV1 ovarian)	TGI (A498 renal)	TGI (MDA-MB-231 breast)	TGI (NCI/ADR-RES ovarian)	TGI (LOX IMVI melanoma)	TGI (UACC-62 melanoma)	TGI (BT-549 breast)
Fc1ccc(NCn2nc(COc3ccccc3Cl)n(/N=C/c3ccc(-c4ccc(Cl)cc4Cl)o3)c2=S)cc1Cl	> 100 µM	> 100 µM	43.6 µM	36.8 µM	> 100 µM	> 100 µM	41.6 µM	> 100 µM	> 100 µM	> 100 µM	–	–
O=C(O)C(Cc1cnc[nH]1)N=Cc1nc(-c2ccccc2)oc1O (configuration not stated)	–	> 100 µM	> 100 µM	> 100 µM	> 100 µM	> 100 µM	> 100 µM	–	–	> 100 µM	> 100 µM	–
Nc1ccc(C(=O)NN2C(=O)C(Cl)C2c2ccc([N+](=O)[O-])cc2)cc1 (configuration not stated)	–	33.5 µM	36.2 µM	–	32.6 µM	16.6 µM	38.6 µM	–	–	5.2 µM	24.7 µM	–
C[C@@H]1OC(=O)C[C@H]2CC(=O)N(CCC3CN(S(=O)(=O)C(F)(F)F)c4ccc(Cc5ccc6c(c5)C(CCN5C[C@H]7[C@@H](CC(=O)O[C@H]7C)CC5=O)CN6S(=O)(=O)C(F)(F)F)cc43)C[C@@H]21 (some centres not stated)	> 100 µM	> 100 µM	> 100 µM	–	–	–	> 100 µM	> 100 µM	> 100 µM	> 100 µM	> 100 µM	> 100 µM
O=C1SC(c2ccccc2)(c2ccccc2)c2ccccc21	–	> 100 µM	> 100 µM	–	> 100 µM	> 100 µM	–	–	–	> 100 µM	> 100 µM	–
CC(=O)OC1(C#N)CC2OC1C1C2N1C(=O)OC(C)(C)C (configuration not stated)	–	> 100 µM	> 100 µM	–	–	> 100 µM	> 100 µM	–	–	> 100 µM	> 100 µM	–
C[N+](C)(C)C1(C(=O)[O-])CC1	> 100 µM	> 100 µM	> 100 µM	> 100 µM	> 100 µM	> 100 µM	> 100 µM	–	> 100 µM	> 100 µM	–	–
O=C1C=CC[C@H](/C=C/C[C@@H](O)C[C@H](O)/C=C/c2ccccc2)O1	23.4 µM	24 µM	42.3 µM	–	23.5 µM	28 µM	27 µM	22.2 µM	65.3 µM	13.3 µM	29.4 µM	23.6 µM
COC1=CC(=O)c2c(O)ccc(O)c2C1=O	1.34 µM	28.3 µM	> 100 µM	–	4.41 µM	37.5 µM	31.6 µM	10.1 µM	60.2 µM	–	4.21 µM	6.17 µM
Clc1ccc2c(c1)CC1C[N+]3=C(CCCC3)C1=C2 (configuration not stated)	> 100 µM	> 100 µM	> 100 µM	–	> 100 µM	> 100 µM	> 100 µM	> 100 µM	> 100 µM	> 100 µM	> 100 µM	> 100 µM
COc1cc(C2c3[nH]c4ccc(F)cc4c3C[C@H]3COC(=O)N23)cc(OC)c1O (some centres not stated)	–	–	> 100 µM	–	26.8 µM	> 100 µM	25.6 µM	47.4 µM	> 100 µM	31.3 µM	32.6 µM	> 100 µM
COc1cc(-c2c3c([nH]c(=O)c2C#N)-c2cc([N+](=O)[O-])ccc2CCC3)cc(OC)c1OC	> 100 µM	> 100 µM	> 100 µM	–	> 100 µM	> 100 µM	66.9 µM	79.2 µM	> 100 µM	> 100 µM	32.1 µM	61.3 µM
O=C(N/N=C/C=C/c1ccc([N+](=O)[O-])o1)c1ccc(Br)s1	83.6 µM	46.5 µM	> 100 µM	–	34.2 µM	16.4 µM	> 100 µM	64.9 µM	57.4 µM	60.7 µM	49.5 µM	51.8 µM
CC1C2(C)OC(=N)C(C#N)(C(c3ccco3)O2)C1(C#N)C#N (configuration not stated)	–	> 100 µM	> 100 µM	–	> 100 µM	> 100 µM	> 100 µM	39.5 µM	> 100 µM	40.5 µM	36.8 µM	> 100 µM
COC(=O)c1cc(-c2ccc(-c3ccc(O)cc3)cc2)cc(-c2ccc(-c3ccc(O)cc3)cc2)c1	24.9 µM	26.7 µM	17.6 µM	–	–	21.1 µM	34.7 µM	71.3 µM	30.1 µM	18.4 µM	–	26.6 µM
Cc1cc(Cl)ccc1NC(=O)CC1SC(N)=NC1=O (configuration not stated)	–	> 100 µM	> 100 µM	–	> 100 µM	> 100 µM	> 100 µM	–	–	> 100 µM	> 100 µM	–
CNC(=O)c1n[nH]n(Cc2ccccc2)c1=S	> 100 µM	> 100 µM	> 100 µM	–	> 100 µM	> 100 µM	–	> 100 µM	> 100 µM	–	> 100 µM	> 100 µM
O=C1/C(=C/c2ccc(Cl)cc2)N=C(c2ccccc2)N1C1Nc2cc3c(cc2S1)NC(N1C(=O)/C(=C/c2ccc(Cl)cc2)N=C1c1ccccc1)S3 (configuration not stated)	> 100 µM	> 100 µM	> 100 µM	74.1 µM	> 100 µM	> 100 µM	> 100 µM	> 100 µM	> 100 µM	> 100 µM	–	–
COc1cc(CNC(=O)[C@H](Cc2ccc(O)cn2)NC(C)=O)cc(OC)c1	> 100 µM	> 100 µM	> 100 µM	–	> 100 µM	> 100 µM	> 100 µM	–	> 100 µM	> 100 µM	> 100 µM	> 100 µM
Cc1nc2c(n1CCC(C)C)C(=O)c1ccccc1C2=O	–	> 100 µM	69.1 µM	37.6 µM	> 100 µM	58.9 µM	–	–	–	30.9 µM	27 µM	–
Cc1cc(NS(=O)(=O)c2ccc(NC(=O)c3cccc4cc5ccccc5nc34)cc2)no1	–	89.3 µM	50.6 µM	–	> 100 µM	64.8 µM	37 µM	–	–	–	48.5 µM	–
CCCN1CN(c2ccccc2)C2(CCN(CCCC(=O)c3ccc(F)cc3)CC2)C1=O	23.5 µM	22.4 µM	> 58.4 µM	41.4 µM	7.02 µM	14.8 µM	5.67 µM	18.1 µM	17.6 µM	17.1 µM	31.3 µM	–
